The record followed here is US10870647B2, “Imidazopyridine derivative, method for preparing same, and pharmaceutical composition containing same as active ingredient for preventing or treating cancer” (DAEGU-GYEONGBUK MEDICAL INNOVATION FOUNDATION, priority 2016, dated 2020).

Holding throughout (type): cell-based
In assay [1] the test system is A375. In words: Cancer cell proliferation inhibition, CCK-8, 72 hours. In short, it runs like this: (§1)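 A375 cells (2×10^3/well) attached overnight, then received 9 three-fold dilutions (0.0015-10 μM). K562 and Ba/F3-T315I (1×10^4/well) were given 9-point series (3-fold and 5-fold respectively), final 0-10 μM. After 72 h at 37°C, CCK-8 was added for 2 h; blank-subtracted OD450 gave IC50.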

Assay [2] concerns K562. The description is as above. In outline: as §1
Assay [3] concerns the target T1, T315I (Ba/F3) (Homo sapiens, UniProt P00519, T315I, cells depend on it).
T1 construct: fused on or other part: P11274 (Breakpoint cluster region protein)
The description is as above. The note with it: read-out: T315I (Ba/F3) IC50. In outline: as §1

The subject of assay [4] is SK-MEL-28. Put plainly: Cancer cell proliferation inhibition, MTS assay, 72 hours. The note with it: Homo sapiens. In outline: (§2)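 Read-out was OD450 after a 2 h MTS/PMS incubation at 37° C, following 72 h compound treatment. Cells had been plated at 3,000 cells/well and cultured 24 h beforehand; compound was serially diluted from a top of 50 μM with 0.05% DMSO as vehicle. IC50 derived from three data sets.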
(In general: Formazan colour is commonly taken as a measure of viable cells.)

Assay [5] has as its system Huh7. Described as above. The following applies: Homo sapiens, Huh-7. In outline:
as §2

The target of assay [6] is T2, Ret^wt (Ba/F3) (Homo sapiens, UniProt P07949).
T2 construct: candidates are KIF5B, CCDC6, TEL (ETV6), or none (full-length RET)
T2 sequence (P07949 whole entry, change not shown): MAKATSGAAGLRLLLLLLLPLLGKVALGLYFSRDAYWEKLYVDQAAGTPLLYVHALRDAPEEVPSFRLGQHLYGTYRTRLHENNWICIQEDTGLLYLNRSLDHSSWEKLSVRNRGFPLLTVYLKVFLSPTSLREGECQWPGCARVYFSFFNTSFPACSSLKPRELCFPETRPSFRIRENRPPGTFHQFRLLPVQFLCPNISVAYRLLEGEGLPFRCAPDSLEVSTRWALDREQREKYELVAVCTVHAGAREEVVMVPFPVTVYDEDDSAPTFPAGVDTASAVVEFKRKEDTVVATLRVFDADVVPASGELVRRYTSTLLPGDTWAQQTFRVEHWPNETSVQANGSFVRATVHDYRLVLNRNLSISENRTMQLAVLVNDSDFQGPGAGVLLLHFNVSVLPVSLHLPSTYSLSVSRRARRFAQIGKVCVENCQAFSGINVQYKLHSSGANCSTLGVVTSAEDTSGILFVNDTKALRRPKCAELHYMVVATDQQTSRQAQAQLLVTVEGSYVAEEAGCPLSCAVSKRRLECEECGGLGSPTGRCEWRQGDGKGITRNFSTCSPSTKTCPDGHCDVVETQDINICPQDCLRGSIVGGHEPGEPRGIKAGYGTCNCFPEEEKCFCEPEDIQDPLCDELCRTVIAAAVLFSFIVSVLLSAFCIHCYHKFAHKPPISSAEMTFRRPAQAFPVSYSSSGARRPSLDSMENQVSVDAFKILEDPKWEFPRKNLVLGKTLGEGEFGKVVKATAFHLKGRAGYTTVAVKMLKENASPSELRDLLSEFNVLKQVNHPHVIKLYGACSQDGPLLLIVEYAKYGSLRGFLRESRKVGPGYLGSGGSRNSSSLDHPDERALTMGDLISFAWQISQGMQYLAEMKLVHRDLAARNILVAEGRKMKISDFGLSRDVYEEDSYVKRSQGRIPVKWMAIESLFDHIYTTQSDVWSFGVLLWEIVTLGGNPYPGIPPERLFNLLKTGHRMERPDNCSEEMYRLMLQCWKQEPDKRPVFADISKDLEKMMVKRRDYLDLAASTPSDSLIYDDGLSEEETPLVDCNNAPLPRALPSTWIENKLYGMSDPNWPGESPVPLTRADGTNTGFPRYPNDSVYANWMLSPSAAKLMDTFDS
The assay is described as above. The following applies: read-out: Ret^wt (Ba/F3) IC50. In short, it runs like this:
as §2

The test system of assay [7] is MDA-MB-231. Put plainly: Real time cell proliferation, IncuCyte ZOOM, 72 hours. The note with it: Homo sapiens, MDA-MB-231, 72 h.
Assay [8] has as its system FYN (MCP-1). In words: Cancer cell proliferation inhibition, MTS assay, 72 hours. In short, it runs like this:
as §2

The test system of assay [9] is M-NFS-60. Put plainly: Cancer cell proliferation inhibition, CCK-8, 72 hours. In short, it runs like this:
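Cells were grown in RPMI with 10% FBS, 0.05 mM 2-mercaptoethanol and human M-CSF, and seeded at 20000 cells/well. Compounds were added from a 3-fold DMSO dilution series topping at 1968 nM (dilution-plate concentration; 11 points including DMSO control). After 72 h at 37 °C, CCK-8 was added for 2 h and OD450 read.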

Assay [10] relates to RET (LC2/ad-CDC6). In words: Cancer cell proliferation inhibition, MTS assay, 72 hours. In short, it runs like this: as §2

Where two headings read alike, the source gives them in different places.

Usually IC50 stands for the concentration at which inhibition is half-maximal. Read a low IC50 as inhibition by little substance. Turning to `COc1ccc(NC(=O)c2ccc(C)c(C#Cc3cnc4c(Nc5cnn(C)c5)cccn34)c2)cc1F` [Example 4, N-(3-fluoro-4-methoxyphenyl)-4-methyl-3-((8-((1-methyl-1H-pyrazol-4-yl)amino)imidazo[1,2-a]pyridin-3-yl)ethynyl)benzamide], the IC50 was over 10000 nM in [1] (Homo sapiens, A-375, 72 h); under 1 nM in [2] (Homo sapiens, K562, 72 h); over 10000 nM in [4]; 6020 nM in [5]; over 10000 nM in assay [7]. The results for the GI50 in assay [3] and in assay [6] were over 10000 nM and 1910 nM, respectively.
As for `Cc1ccc(C(=O)Nc2ccc(CN3CCC(N(C)C)C3)c(C(F)(F)F)c2)cc1C#Cc1cnc2c(Nc3cnn(C)c3)cccn12` (stereo not shown) [Example 32, N-(4-((3-(dimethylamino)pyrrolidin-1-yl)methyl)-3-(trifluoromethyl)phenyl)-4-methyl-3-((8-((1-methyl-1H-pyrazol-4-yl)amino)imidazo[1,2-a]pyridin-3-yl)ethynyl)benzamide], the IC50 in assay [1] (Homo sapiens, A-375, 72 h) was 406 nM; in [2] (Homo sapiens, K562, 72 h), under 1 nM; in [8], 890 nM; in assay [4], 1150 nM; in assay [5], 107 nM; in [9], 64.2 nM. In [7], this compound gave an IC50 of 456 nM. In addition, in assay [3], the GI50 was found to be 60.4 nM.
Take `Cc1ccc(C(=O)Nc2cccc(F)c2)cc1C#Cc1cnc2c(Nc3cnn(C)c3)cccn12` [Example 6, N-(3-fluorophenyl)-4-methyl-3-((8-((1-methyl-1H-pyrazol-4-yl)amino)imidazo[1,2-a]pyridin-3-yl)ethynyl)benzamide]: the IC50 in assay [1] (Homo sapiens, A-375, 72 h) is over 10000 nM; in [2] (Homo sapiens, K562, 72 h), 4 nM; in assay [4] it was over 10000 nM; in assay [5], 6260 nM; in [9] it was 6.82 nM; in assay [7] it was over 10000 nM. For the same compound, the GI50 in assay [3] is 8440 nM; in assay [6], 12800 nM.
With `CN1CCN(Cc2ccc(NC(=O)c3cccc(C#Cc4cnc5c(Nc6cnn(C)c6)cccn45)c3)cc2C(F)(F)F)CC1` [Example 60, 3-((8-((1-methyl-1H-pyrazol-4-yl)amino)imidazo[1,2-a]pyridin-3-yl)ethynyl)-N-(4-((4-methylpiperazin-1-yl)methyl)-3-(trifluoromethyl)phenyl)benzamide], the half-maximal inhibitory concentration (IC50) was 229 nM in assay [1] (Homo sapiens, A-375, 72 h); under 1 nM in assay [2] (Homo sapiens, K562, 72 h); over 10 nM in [10] (72 h); 1470 nM in [8]; 21.3 nM in assay [9]; 289 nM in assay [7]. For the same compound, the GI50 in assay [3] was 34.8 nM.
Regarding `Cc1ccc(Nc2cccn3c(C#Cc4cc(C(=O)Nc5ccc(CN6CCN(C)CC6)c(C(F)(F)F)c5)ccc4C)cnc23)nc1` [Example 20, 4-methyl-N-(4-((4-methylpiperazin-1-yl)methyl)-3-(trifluoromethyl)phenyl)-3-((8-((5-methylpyridin-2-yl)amino)imidazo[1,2-a]pyridin-3-yl)ethynyl)benzamide], the IC50 was 3360 nM in assay [1] (Homo sapiens, A-375, 72 h); 14 nM in assay [2] (Homo sapiens, K562, 72 h); under 100 nM in assay [10] (72 h); 1330 nM in assay [8]; 1450 nM in assay [4]; 1750 nM in assay [5]. The values for the half-maximal inhibitory concentration (IC50) in [9] and in [7] were 1060 nM and 1560 nM, respectively. Besides, in assay [3], the GI50 amounted to 234 nM.
For the compound `Cc1ccc(C(=O)Nc2ccc(CN3CCN(C)[C@H](C)C3)c(C(F)(F)F)c2)cc1C#Cc1cnc2c(Nc3cnn(C)c3)cccn12` [Example 31, (R)—N-(4-((3,4-dimethylpiperazin-1-yl)methyl)-3-(trifluoromethyl)phenyl)-4-methyl-3-((8-((1-methyl-1H-pyrazol-4-yl)amino)imidazo[1,2-a]pyridin-3-yl)ethynyl)benzamide], the IC50 was 152 nM in assay [1] (Homo sapiens, A-375, 72 h); under 1 nM in assay [2] (Homo sapiens, K562, 72 h); 770 nM in [8]; 482 nM in [4]; 64 nM in assay [5]; 63.6 nM in assay [9]. The same compound had an IC50 in assay [7] of 212 nM. Besides, the GI50 in assay [3] worked out at 54.2 nM.
Regarding `Cc1ccc(C(=O)Nc2cccc(C(F)(F)F)c2)cc1C#Cc1cnc2c(Nc3cnn(CCCN(C)C)c3)cccn12` [Example 27, 3-((8-((1-(3-(dimethylamino)propyl)-1H-pyrazol-4-yl)amino)imidazo[1,2-a]pyridin-3-yl)ethynyl)-4-methyl-N-(3-(trifluoromethyl)phenyl)benzamide], the concentration for half-maximal inhibition (IC50) in assay [1] (Homo sapiens, A-375, 72 h) was 4460 nM; in assay [2] (Homo sapiens, K562, 72 h), under 1 nM; in assay [10] (72 h), under 1000 nM; in assay [8], 1500 nM; in assay [4] it was over 10000 nM; in assay [5], 2020 nM. The figures for the IC50 in [9] and in [7] were 56.9 nM and 3060 nM, respectively. The GI50 in assay [3] was found to be 60.2 nM.
On to `CCn1cc(Nc2cccn3c(C#Cc4cc(C(=O)Nc5ccc(CN6CCN(C)CC6)c(C(F)(F)F)c5)ccc4C)cnc23)cn1` [Example 22, 3-((8-((1-ethyl-1H-pyrazol-4-yl)amino)imidazo[1,2-a]pyridin-3-yl)ethynyl)-4-methyl-N-(4-((4-methylpiperazin-1-yl)methyl)-3-(trifluoromethyl)phenyl)benzamide], for which the half-maximal inhibitory concentration (IC50) is 140 nM in assay [1] (Homo sapiens, A-375, 72 h); under 1 nM in assay [2] (Homo sapiens, K562, 72 h); under 10 nM in assay [10] (72 h); 320 nM in assay [8]; 803 nM in assay [4]; 91 nM in [5]. The IC50 in [9] is 56.2 nM; in assay [7], 318 nM. In addition, the GI50 in [3] was determined as 37.5 nM.
`Cc1ccc(C(=O)Nc2ccc(CN3CCN(C)[C@H](C)C3)c(C(F)(F)F)c2)cc1C#Cc1cnc2c(Nc3cnn(C(C)C)c3)cccn12` [Example 29, (R)—N-(4-((3,4-dimethylpiperazin-1-yl)methyl)-3-(trifluoromethyl)phenyl)-3-((8-((1-isopropyl-1H-pyrazol-4-yl)amino)imidazo[1,2-a]pyridin-3-yl)ethynyl)-4-methylbenzamide]: the 50% inhibitory concentration (IC50) in assay [1] was 292 nM; in assay [2], 5 nM; in assay [10], under 100 nM; in assay [8], 3130 nM; in assay [4], 717 nM; in [5], 30 nM. Further, in assay [7], the IC50 worked out at 963 nM. In assay [3], the GI50 turned out to be 102 nM.
`CN1CCN(Cc2ccc(NC(=O)c3ccc(F)c(C#Cc4cnc5c(Nc6cnn(C)c6)cccn45)c3)cc2C(F)(F)F)CC1` [Example 61, 4-fluoro-3-((8-((1-methyl-1H-pyrazol-4-yl)amino)imidazo[1,2-a]pyridin-3-yl)ethynyl)-N-(4-((4-methylpiperazin-1-yl)methyl)-3-(trifluoromethyl)phenyl)benzamide]: the half-maximal inhibitory concentration (IC50) is 172 nM in [1] (Homo sapiens, A-375, 72 h); under 1 nM in assay [2] (Homo sapiens, K562, 72 h); over 10 nM in [10] (72 h); 1170 nM in assay [8]; 45.3 nM in assay [9]; 268 nM in assay [7]. Besides, in assay [3], the GI50 is 58.6 nM.
With `CCN1CCN(Cc2ccc(NC(=O)c3ccc(C)c(C#Cc4cnc5c(Nc6cnn(CC)c6)cccn45)c3)cc2C(F)(F)F)CC1` [Example 23, 3-((8-((1-ethyl-1H-pyrazol-4-yl)amino)imidazo[1,2-a]pyridin-3-yl)ethynyl)-N-(4-((4-ethylpiperazin-1-yl)methyl)-3-(trifluoromethyl)phenyl)-4-methylbenzamide], the IC50 is 142 nM in assay [1] (Homo sapiens, A-375, 72 h); under 1 nM in assay [2] (Homo sapiens, K562, 72 h); under 10 nM in [10] (72 h); 270 nM in assay [8]; 917 nM in [4]; 73.8 nM in assay [5]. In assay [7], 342 nM corresponded to half-maximal inhibition (IC50). Further, the GI50 in assay [3] came out at 39 nM.
